# Data from patent EP0384421A2, “Use of PAF antagonists in the treatment of pathologic changes of the blood gas” (BOEHRINGER INGELHEIM KG, priority 1989, dated 1990).
# Values joined by “and” are separate entries in the source; they are usually repeats but may differ in a detail not shown here. Identical values can stand only once.
# Experiments:
# Methylparathion = test system: Methylparathion; set-up: species or system Ratten; conditions: in vivo
# From the text: Die Bestimmung der Partialdrucke der nachfolgend aufgeführten Blutgase sowie die Bestimmung des pH-Wertes des Blutes sind ein Indiz dafür, daß eine Behandlungsmethode bei Organophosphorvergiftungen positiv anspricht.
# In der Tabelle I sind der pH-Wert und die Partialdrucke von CO₂ und O₂ aufgeführt. Die Ergebnisse sind Mittelwerte die aus Versuchen an 6 bis 15 Ratten je Experiment erhalten wurden. […] Die Konzentration von Atropin und Web 2086 ist in der Tabelle angegeben und bezieht sich auf mg/kg i.v. Die Reihenfolge der Applikation ist in Spalte 1 der Tabelle angegeben. Die Blutentnahme erfolgt 5 Minuten nach der letzten Substanzgabe. Die Blutgas-Messung erfolgte mit einem "Corning-Blood-Gas-Analyser 178".
# PAF = assay: Acid-base balance and blood gases in arterial blood of rats after PAF and a PAF antagonist; type: in vivo, Ratten; conditions: for BE / HCO3 / O2sat / TCO2 / pCO2 / pO2 / ph: PAF 10 µg/kg i.v., rats; for pH-Wert-Erniedrigung: pH decrease caused by PAF 10 µg/kg i.v.
# [1] = PAF antagonist 1000 ug/kg i.v., arterial blood
# [2] = PAF antagonist 100 ug/kg i.v., arterial blood
smiles,measurement,setting,value
"CN1C2CCC1CC(OC(=O)C(CO)c1ccccc1)C2 (racemic) [Atropin, reference compound]",pH,Methylparathion,"7,43 and 7,21 and 6,97"
"Cc1nnc2n1-c1sc(Br)cc1C(c1ccccc1Cl)=NC2 [Brotizolam, reference compound]",BE,PAF; 10 mg/kg p.o.,"-18,95"
same,HCO3,PAF; 10 mg/kg p.o.,"7,88"
same,O2sat,PAF; 10 mg/kg p.o.,"95,48"
same,TCO2,PAF; 10 mg/kg p.o.,"8,57"
same,pCO2,PAF; 10 mg/kg p.o.,"22,22"
same,pO2,PAF; 10 mg/kg p.o.,"104,47"
same,ph,PAF; 10 mg/kg p.o.,"7,17"
same,BE,PAF; 30 mg/kg p.o.,"-3,32"
same,HCO3,PAF; 30 mg/kg p.o.,"20,97"
same,O2sat,PAF; 30 mg/kg p.o.,"94,43"
same,TCO2,PAF; 30 mg/kg p.o.,"22,05"
same,pCO2,PAF; 30 mg/kg p.o.,"35,53"
same,pO2,PAF; 30 mg/kg p.o.,"87,42"
same,ph,PAF; 30 mg/kg p.o.,"7,37"
same,BE,PAF; 100 mg/kg p.o.,"-7,94"
same,HCO3,PAF; 100 mg/kg p.o.,"16,38"
same,O2sat,PAF; 100 mg/kg p.o.,"95,18"
same,TCO2,PAF; 100 mg/kg p.o.,"17,34"
same,pCO2,PAF; 100 mg/kg p.o.,"30,60"
same,pO2,PAF; 100 mg/kg p.o.,"87,92"
same,ph,PAF; 100 mg/kg p.o.,"7,33"
same,Blutgas-stabilisierende Wirkung,"PAF; 10,30 und 100 mg/kg p.o., same experimental set-up",dosisabhängig
same,durch PAF-verursachte pH Wert-Verminderung,PAF; 30 und 100 mg/kg,verhindert
same,Abnahme des CO₂-Partialdruckes und Abnahme des Basenüberschusses,"PAF; 30 und 100 mg/kg, PAF-induced",verhindert
Cc1nnc2n1-c1sc3c(c1C(c1ccccc1Cl)=NC2)CC(CN1CCOCC1)C3 (centres unmarked) [STY 2108],BE,PAF; [1],0.42
same,HCO3,PAF; [1],24.5
same,O2sat,PAF; [1],96.8
same,TCO2,PAF; [1],25.8
same,pCO2,PAF; [1],39.5
same,pO2,PAF; [1],90.4
same,ph,PAF; [1],7.40
same,pH-Wert-Erniedrigung,PAF,verhindert
"Cc1nnc2n1-c1sc(CCC(=O)N3CCOCC3)cc1C(c1ccccc1Cl)=NC2 [WEB 2086, 4-(2-Chlorphenyl)-9-methyl-2-[3-(4-morpholinyl)-3-propanon-1-yl]-6H-thieno[3,2-f][1,2,4]triazolo[4,3-a][1,4]diazepin]",BE,PAF; [1],-5.40
same,HCO3,PAF; [1],19.8
same,O2sat,PAF; [1],91.5
same,TCO2,PAF; [1],20.9
same,pCO2,PAF; [1],38.2
same,pO2,PAF; [1],72.8
same,ph,PAF; [1],7.32
same,pH-Wert-Erniedrigung,PAF,verhindert
same,Blutgaswerte bei Phosphorsäureestervergiftungen,Methylparathion,positiv beeinflußt
same,PCO2,Methylparathion,"73,0 and 58,9"
same,PO2,Methylparathion,"51,7 and 61,9"
same,pH,Methylparathion,"7,25 and 7,07"
"Cc1nnc2n1-c1sc3c(c1C(c1ccccc1Cl)=NC2)CC(C(=O)N1CCOCC1)C3 (centres unmarked) [WEB 2170, 6-(2-Chlorphenyl)-8,9-dihydro-1-methyl-8-[(4-morpholinyl)carbonyl]-4H,7H-cyclopenta[4,5]thieno[3,2-f][1,2,4]triazolo[4,3-a][1,4]diazepin]",BE,PAF; [2],0.18
same,HCO3,PAF; [2],22.9
same,O2sat,PAF; [2],97.1
same,TCO2,PAF; [2],23.9
same,pCO2,PAF; [2],33.8
same,pO2,PAF; [2],89.8
same,ph,PAF; [2],7.44
same,pH-Wert-Erniedrigung,PAF,verhindert
